Measurements from patent US9550796B2, “Pyrrolopyrrolone derivatives and their use as BET inhibitors” (NOVARTIS AG, priority 2013, dated 2017).

Tests used:
K-562 = assay: Cell growth inhibition assay (CellTiter-Glo), K-562; format: cell-based, human; details: K-562 cells, 4 days; for GI50: Homo sapiens, K562, 96 h, half-maximal growth inhibition; for K-562 TGI: total growth inhibition
Method in brief: (§1)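 A separate day 0 plate allows cytotoxic and cytostatic effects to be distinguished: viable-cell ATP after 4-day compound treatment (top 10 μM, 3-fold steps) is expressed relative to it. DMSO-only wells count as 100% and medium-only wells as −100%.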

MV-4-11 = assay: Cell growth inhibition assay (CellTiter-Glo), MV-4-11; format: cell-based, human; details: MV-4-11 cells, 4 days; for GI50: Homo sapiens, MV4-11, 96 h, half-maximal growth inhibition; for MV-4-11 TGI: total growth inhibition
Method in brief: as §1

BRD2 = BRD2 (Homo sapiens (Human), UniProt P25440); assay: TR-FRET in-vitro binding assay for BRD2; details: 45 nM His-Brd2(60-472), acetyl-histone H4 (AcK 5, 8, 12, 16) peptide
BRD2, sequence (P25440 60-472): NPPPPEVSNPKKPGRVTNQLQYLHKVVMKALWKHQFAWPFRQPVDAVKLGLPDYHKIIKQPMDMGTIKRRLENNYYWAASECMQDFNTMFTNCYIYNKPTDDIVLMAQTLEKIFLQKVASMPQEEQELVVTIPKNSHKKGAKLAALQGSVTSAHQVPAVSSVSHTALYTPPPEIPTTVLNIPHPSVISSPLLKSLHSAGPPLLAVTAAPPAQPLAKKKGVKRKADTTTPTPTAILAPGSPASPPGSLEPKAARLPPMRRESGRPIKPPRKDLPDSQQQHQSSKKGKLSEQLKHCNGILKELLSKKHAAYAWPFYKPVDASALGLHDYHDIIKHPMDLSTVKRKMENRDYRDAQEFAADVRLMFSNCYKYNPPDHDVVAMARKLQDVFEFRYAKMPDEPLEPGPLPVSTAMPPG
Method in brief: (§2)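 Incubation at 30° C lasted 35 min, followed by TR-FRET measurement; each compound was tested as 8 single-point concentrations.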

THP-1 = assay: Cell growth inhibition assay (CellTiter-Glo), THP-1; format: cell-based, human; details: THP-1 cells, 4 days; for GI50: Homo sapiens, 96 h, half-maximal growth inhibition; for THP-1 TGI: total growth inhibition
Method in brief: as §1

BRD4-NUT-fusion = BRD4-NUT-fusion (Homo sapiens, UniProt O60885); assay: Nut-foci formation assay in HCC2494 NUT midline carcinoma cells; format: cell-based; details: 24 hours, nuclear BRD4-NUT foci by immunofluorescence microscopy, read-out: HCS Brd4-NUT IC50
Description: Nut-Foci Formation Assay […] Compound-mediated inhibition of BRD4 activity can be monitored by quantification of the number and intensity of nuclear BRD4-NUT foci using automated immunofluorescence microscopy. Briefly, 5000 cells in 20 μL fresh medium are seeded into Poly-D-Lysine-precoated 384-well plates and incubated overnight at 37° C. and 5% CO2, followed by addition of 5 μl medium containing compound dilutions at 5-fold their final intended concentration. […] Assay plates can be imaged using the appropriate filter sets on the Cellomics VTi automated fluorescence microscopy platform (ThermoFisher Scientific) and the population average of the number of NUT-foci per nucleus is quantified using the Cellomics Spot Detection BioApplication image analysis algorithm (ThermoFisher Scientific). […] Compound concentrations leading to half-maximal (IC50) inhibition of the aforementioned readout parameters are determined using standard four parameter curve fitting.

BRD3 = BRD3 (Homo sapiens (Human), UniProt Q15059); assay: TR-FRET in-vitro binding assay for BRD3; details: 45 nM His-Brd3(20-477), acetyl-histone H4 (AcK 5, 8, 12, 16) peptide
BRD3, sequence (Q15059 20-477): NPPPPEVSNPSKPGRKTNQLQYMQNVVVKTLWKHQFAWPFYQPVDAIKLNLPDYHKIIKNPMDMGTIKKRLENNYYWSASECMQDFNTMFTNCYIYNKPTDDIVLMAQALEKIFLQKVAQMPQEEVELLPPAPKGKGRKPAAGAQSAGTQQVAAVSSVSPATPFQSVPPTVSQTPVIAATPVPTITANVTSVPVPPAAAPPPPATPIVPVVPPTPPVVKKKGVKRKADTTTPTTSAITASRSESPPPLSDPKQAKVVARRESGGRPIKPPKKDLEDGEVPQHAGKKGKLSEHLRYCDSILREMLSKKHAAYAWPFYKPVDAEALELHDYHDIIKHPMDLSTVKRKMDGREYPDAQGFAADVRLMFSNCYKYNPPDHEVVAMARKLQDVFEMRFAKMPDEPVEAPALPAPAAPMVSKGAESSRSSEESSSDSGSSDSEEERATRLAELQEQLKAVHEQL
Method in brief: as §2

BRD4 = BRD4 (Homo sapiens (Human), UniProt O60885); assay: TR-FRET in-vitro binding assay for BRD4; details: 45 nM His-Brd4(44-477), acetyl-histone H4 (AcK 5, 8, 12, 16) peptide
Method in brief: as §2

CREBBP = CREBBP (Homo sapiens (Human), UniProt Q92793); assay: AlphaScreen in-vitro binding assay for CREBBP; details: 324 nM His-CREBBP (1081-1197), acetyl-histone H4 (AcK 5, 8, 12) peptide
CREBBP, sequence (Q92793 1081-1197): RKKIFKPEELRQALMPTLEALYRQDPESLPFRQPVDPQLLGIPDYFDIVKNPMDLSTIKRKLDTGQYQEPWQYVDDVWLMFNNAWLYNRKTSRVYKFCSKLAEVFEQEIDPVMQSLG
Method in brief: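 IC50 values were derived by non-linear regression of percent inhibition across 8 compound concentrations. Protein was His-tagged CREBBP bromodomain (1081-1197), peptide acetyl-histone H4 (AcK 5, 8, 12), in HEPES pH 7.5 buffer. Read-out was AlphaScreen with Ni-chelate acceptor and streptavidin donor beads, 35 min at 30° C then 60 min at RT.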

Compound | GI50 (K-562) [nM] | K-562 TGI (K-562) [nM] | GI50 (MV-4-11) [nM] | MV-4-11 TGI (MV-4-11) [nM] | IC50 (BRD2) [nM] | GI50 (THP-1) [nM] | THP-1 TGI (THP-1) [nM] | IC50 (BRD4-NUT-fusion) [nM] | IC50 (BRD3) [nM] | IC50 (BRD4) [nM] | IC50 (CREBBP) [nM]
Cc1cc(N2C(=O)c3cc(-c4ccc(N(C)C)nc4)n(C)c3C2c2ccc(Cl)cc2)cn(C)c1=O (centres unmarked) [Example 50, 6-(4-chlorophenyl)-5-(1,5-dimethyl-6-oxo-1,6-dihydropyridin-3-yl)-2-(6-(dimethylamino)pyridin-3-yl)-1-methyl-5,6-dihydropyrrolo[3,4-b]pyrrol-4(1H)-one] | 105 | >10000 | 20.8 | 33 | 37 | 31.6 | 64.9 | 73.3 | 42 | 46 | –
COc1ncc(-c2cc3c(n2C)C(c2ccc(Cl)cc2)N(c2cc(C)c(=O)n(C)c2)C3=O)cn1 (centres unmarked) [Example 55, 6-(4-chlorophenyl)-5-(1,5-dimethyl-6-oxo-1,6-dihydropyridin-3-yl)-2-(2-methoxypyrimidin-5-yl)-1-methyl-5,6-dihydropyrrolo[3,4-b]pyrrol-4(1H)-one] | 231 | >10000 | 34.5 | 54.2 | 53 | 76.3 | 130 | 146 | 50 | 52 | –
Cc1cc(N2C(=O)c3ccn(C4CC4)c3C2c2ccc(Cl)cc2)cn(C)c1=O (centres unmarked) [Example 61, 6-(4-chlorophenyl)-1-cyclopropyl-5-(1,5-dimethyl-6-oxo-1,6-dihydropyridin-3-yl)-5,6-dihydropyrrolo[3,4-b]pyrrol-4(1H)-one] | 421 | >10000 | 61.6 | 106 | 68 | 102 | 224 | 136 | 53 | 68 | –
Cn1ccc2c1C(c1ccc(Cl)cc1)N(c1ccc(=O)n(C)c1)C2=O (centres unmarked) [Example 78, 6-(4-chlorophenyl)-1-methyl-5-(1-methyl-6-oxo-1,6-dihydropyridin-3-yl)-5,6-dihydropyrrolo[3,4-b]pyrrol-4(1H)-one] | 1610 | >10000 | 486 | 794.5 | – | 573 | 1350 | 729 | – | 150 | –
CNC(=O)c1cn(C)c2c1C(=O)N(c1cc(C)c3nnc(C)n3c1)C2c1ccc(Cl)cc1 (centres unmarked) [Example 99, 6-(4-chlorophenyl)-5-(3,8-dimethyl-[1,2,4]triazolo[4,3-a]pyridin-6-yl)-N,1-dimethyl-4-oxo-1,4,5,6-tetrahydropyrrolo[3,4-b]pyrrole-3-carboxamide] | 138 | >10000 | 13.6 | 38.3 | 16 | 27.8 | 96 | – | 13 | < 11 | > 37000
Cc1cc(N2C(=O)c3c(C(=O)N(C)C)cn(C)c3C2c2ccc(Cl)cc2)cn2c(C)nnc12 (centres unmarked) [Example 100, 6-(4-chlorophenyl)-5-(3,8-dimethyl-[1,2,4]triazolo[4,3-a]pyridin-6-yl)-N,N,1-trimethyl-4-oxo-1,4,5,6-tetrahydropyrrolo[3,4-b]pyrrole-3-carboxamide] | 2040 | >10000 | 128 | 368.5 | 40 | 518 | 2135 | – | 47 | 30 | > 37000
Cc1cc(N2C(=O)c3c(C(N)=O)cn(C)c3C2c2ccc(Cl)cc2)cn2c(C)nnc12 (centres unmarked) [Example 101, 6-(4-chlorophenyl)-5-(3,8-dimethyl-[1,2,4]triazolo[4,3-a]pyridin-6-yl)-1-methyl-4-oxo-1,4,5,6-tetrahydropyrrolo[3,4-b]pyrrole-3-carboxamide] | 1300 | >10000 | 57.4 | 160.5 | 54 | 150 | 450.5 | – | 42 | 41 | 30600
Cc1cc(N2C(=O)c3c(NC(=O)OC(C)(C)C)cn(C)c3C2c2ccc(Cl)cc2)cn2c(C)nnc12 (centres unmarked) [Example 102, Tert-butyl (6-(4-chlorophenyl)-5-(3,8-dimethyl-[1,2,4]triazolo[4,3-a]pyridin-6-yl)-1-methyl-4-oxo-1,4,5,6-tetrahydropyrrolo[3,4-b]pyrrol-3-yl)carbamate] | 185 | >10000 | 37.3 | 90.4 | 44 | 53.3 | 118 | – | 34 | 32 | 3200
Cc1cc(N2C(=O)c3c(C4CC4)cn(C4COC4)c3C2c2ccc(Cl)cc2)nc2c1nnn2C (centres unmarked) [Example 104, 6-(4-chlorophenyl)-3-cyclopropyl-5-(3,7-dimethyl-3H-[1,2,3]triazolo[4,5-b]pyridin-5-yl)-1-(oxetan-3-yl)-5,6-dihydropyrrolo[3,4-b]pyrrol-4(1H)-one] | 36.5 | >10000 | 2.98 | 11 | 35 | 6.31 | 18.4 | – | 21 | 21 | 14800
CC(=O)N1CC(n2cc(C3CC3)c3c2C(c2ccc(Cl)cc2)N(c2cc(C)c4nnn(C)c4n2)C3=O)C1 (centres unmarked) [Example 105, 1-(1-acetylazetidin-3-yl)-6-(4-chlorophenyl)-3-cyclopropyl-5-(3,7-dimethyl-3H-[1,2,3]triazolo[4,5-b]pyridin-5-yl)-5,6-dihydropyrrolo[3,4-b]pyrrol-4(1H)-one] | 4.76 | >10000 | 0.341 | 2.43 | 13 | 0.674 | 2.38 | – | 12 | < 11 | 14100
